Source: patent US20220000811A1, “COMPOSITION FOR PROMOTING HAIR GROWTH COMPRISING A GUANINE DERIVATIVE” (KOREA RESEARCH INSTITUTE OF BIOSCIENCE AND BIOTECHNOLOGY, priority 2019, published 2022)

Tests used:
[1] = tested on: human foreskin fibroblast (HFFs); assay: Reprogramming into iPSCs (OSKM) in human foreskin fibroblasts, AP staining; assay type: cell-based
Description: After 28 days, AP staining was performed (FIG. 3a), and the number of AP^+ colonies was quantified (FIG. 3b).

[2] = tested on: human embryonic stem cells (hESCs); assay: Maintaining stemness of human embryonic stem cells in unconditioned medium, AP staining; assay type: cell-based; conditions: for improvement of effect of maintaining stemness: hESCs in UM
Description: Additionally, the effect of the compounds of the present invention on maintaining sternness of human embryonic stern cells (hESCs) was confirmed (FIG. 4). Specifically, when hESCs were cultured in an unconditioned medium (UM), the sternness was lost, and AP activity was weakened (FIG. 4a). […] In particular, when IM176OUT05 was treated at 10 nM and 100 nM concentrations, it was confirmed that the effect of maintaining the sternness was improved by 7.6 times and 8.2 times, respectively (FIG. 4b).

[3] = tested on: K15, β-catenin, Ki67, Shh, PDK, PDH; assay: Histochemical (immunostaining) analysis of skin markers; assay type: in vivo, mouse
Description: During the hair telogen phase, the hair on the dorsal skin of 7-week-old C57BL/6 mice (Dae Han BioLink, Chungbuk, Republic of Korea) was depilated using an animal clipper and wax (Veet, Oxy Reckitt Benckiser, Seoul, Republic of Korea). From the next day, 200 μL of placebo (control), 1% IM, 1% minoxidil, or 1% metformin was applied daily to the depilated area using a sterile cotton swab. Images of each animal were captured daily, and the degree of darkness of the color on dorsal skin was quantified in the same area (1.6 cm×3 cm) using the Image J program. The mice were sacrificed, and skin tissues on days 0, 7, 14, and 20 were obtained. Half of the tissues were used for RNA isolation, and the other half were fixed with 4% paraformaldehyde overnight for histochemical analysis. The tissues fixed in Example 1.1. were immersed in 30% sucrose, and then embedded in an OCT compound (Sakura Finetek USA Inc, Torrance, Calif., USA). Frozen fragments were obtained using a cryostat sectioning device (Leica, Wetzlar, Germany) and stained using hematoxylin (Sigma) and eosin (Sigma) (H&E), or each of the antibodies shown in Table 1 below. Immunohistochemical analysis was performed, and fluorescence images were taken with an Olympus microscope (Olympus)

[4] = tested on: K15/β-catenin, Ki67/Shh, K15/PDK, Ki67/PDH populations; assay: FACS analysis of single skin cells; assay type: in vivo, mouse
Description: During the hair telogen phase, the hair on the dorsal skin of 7-week-old C57BL/6 mice (Dae Han BioLink, Chungbuk, Republic of Korea) was depilated using an animal clipper and wax (Veet, Oxy Reckitt Benckiser, Seoul, Republic of Korea). From the next day, 200 μL of placebo (control), 1% IM, 1% minoxidil, or 1% metformin was applied daily to the depilated area using a sterile cotton swab. Images of each animal were captured daily, and the degree of darkness of the color on dorsal skin was quantified in the same area (1.6 cm×3 cm) using the Image J program. The mice were sacrificed, and skin tissues on days 0, 7, 14, and 20 were obtained. Half of the tissues were used for RNA isolation, and the other half were fixed with 4% paraformaldehyde overnight for histochemical analysis. After the mice were perfused with PBS to remove blood, the skin tissue was harvested and cut into small pieces. The tissue was digested with trypsin (Thermo Fisher Scientific) at 37° C. for 150 minutes, then filtered through a 75 μm nylon mesh, followed by filtering through a 30 μm mesh (BD Biosciences). Single cells were fixed, permeabilized, and blocked according to the immunostaining protocol. The cells were stained with specific antibodies (Table 1 above) and analyzed with BD Accuri™ C6 (BD Biosciences)

[5] = tested on: HK2, LDHA, NDUS3, ATP5B, Wnt1a, Lef-1, Gli-1, versican; assay: Expression of genes related to metabolism and hair regeneration in skin tissue; assay type: in vivo, mouse
Description: (§1) During the hair telogen phase, the hair on the dorsal skin of 7-week-old C57BL/6 mice (Dae Han BioLink, Chungbuk, Republic of Korea) was depilated using an animal clipper and wax (Veet, Oxy Reckitt Benckiser, Seoul, Republic of Korea). From the next day, 200 μL of placebo (control), 1% IM, 1% minoxidil, or 1% metformin was applied daily to the depilated area using a sterile cotton swab. Images of each animal were captured daily, and the degree of darkness of the color on dorsal skin was quantified in the same area (1.6 cm×3 cm) using the Image J program. The mice were sacrificed, and skin tissues on days 0, 7, 14, and 20 were obtained. Half of the tissues were used for RNA isolation, and the other half were fixed with 4% paraformaldehyde overnight for histochemical analysis. The level of expression of genes related to metabolism and hair regeneration was analyzed through the skin tissue of each mouse group.

auricle = assay: Auricle punch analysis (auricular tissue repair); assay type: in vivo, mouse; conditions: 2 mm ear punch holes, daily topical application, indicated concentrations
Description: For the auricular tissue repair analysis, three holes with a diameter of 2 mm were drilled in each ear using a punching instrument (Fine Science Tools, British Columbia, Canada). IM at the indicated concentration was applied daily with a sterile cotton swab. The hole area was measured with digital calipers (VWR, Radnor, Pa., USA).

C57BL/6 mice = assay: Side effects observed during hair regeneration experiment; assay type: in vivo, mouse; conditions: topical treatment during the experiment
Description: as §1, with “analysis.” for “analysis. The level of expression of genes related to metabolism and hair regeneration was analyzed through the skin tissue of each mouse group.”

Cc1ccccc1CCNC(=N)NC(=N)N [IM176OUT05, N-1-(2-methyl)phenethylbiguanide]
enhancing reprogramming efficiency ([1]; 10 nM, 100 nM, and 500 nM, 28 days): ≥ 2.4 times | concentration with the most excellent reprogramming efficacy ([1]; OSKM, after 28 days): 10 nM | improvement of effect of maintaining stemness ([2]; 10 nM): 7.6 times | improvement of effect of maintaining stemness ([2]; 100 nM): 8.2 times | AP staining (stemness) ([2]; hESCs in unconditioned medium, low dose): increase in AP staining | Ki67-positive proliferating cells ([3]; day 7): identified | PDH expression in Ki67-positive proliferating cells ([3]; day 7): clearly confirmed | PDK expression in K15-positive stem cells ([3]; day 7): detected | expression of δ-catenin ([3]; day 7): increased | keratin 15 (K15) expression in follicle protrusion region compared to control or minoxidil ([3]; day 7): strongly expressed | K15/PDH and Ki67/PDK expressions ([3]; day 20): independently detected | Sonic hedgehog (Shh) detection ([3]; day 20): clearly detected | K15+/PDK+ population in single skin cells ([4]; day 7, FACS): 5.9% | K15+/β-catenin+ population in single skin cells ([4]; day 7, FACS): 11.7% | Ki67+/PDH+ population ([4]; day 7, FACS): 13.7% | increase of K15+/β-catenin+ population compared to control ([4]; day 7, FACS): 3.7 | increase of glycolytic stem cell population (K15+/PDK+) compared to control ([4]; day 7, FACS): at least 6.6 times | Ki67+/Shh+ population in single skin cells ([4]; day 20, FACS): 36.7% | PDK+ cell population and Ki67+ cell population ([4]; day 20, FACS): increased | increase of Ki67+/Shh+ population compared to control ([4]; day 20, FACS): 2.7 times | separated populations of PDH+ cells and K15+ cells ([4]; day 20, FACS): increased | expression of stemness-related genes (Wnt1a, Lef-1, Gli-1, and versican) ([5]; day 7, skin): significantly upregulated | expression of glycolysis-related enzymes (HK2 and LDHA) ([5]; day 7, skin tissue): significantly induced | stemness-related genes compared to control ([5]; day 20, skin): significantly induced | expression of OXPHOS-related enzymes (NDUS3 and ATP5B) compared to control ([5]; day 20, skin tissue): increased | expression of glycolysis-related enzymes (HK2 and LDHA) compared to control ([5]; day 20, skin tissue): significantly increased | wound area of the auricle (auricle): reduced the wound area of the auricle in a dose-dependent manner | side effects, including skin problems (C57BL/6 mice): No side effects
